In PMC4585333, “Novel Regulator of Acylated Ghrelin, CF801, Reduces Weight Gain, Rebound Feeding after a Fast, and Adiposity in Mice” (Frontiers in Endocrinology, 2015):
“Also recorded” adds a separate entry of the source.

Columns and labels:
Format in all cases: in vivo, male C57BL/6J mice
plasma acylated ghrelin = experiment: Plasma acylated ghrelin in fasted mice (ELISA)
Method: (§1) In general, male C57BL/6J mice (The Jackson Laboratory, Bar Harbor, ME, USA) weighing 20–25 g were used as experimental subjects. Throughout the duration of the studies, mice were housed under standard laboratory conditions and received ad libitum access to standard laboratory mouse chow and tap water. Lights in the facility were set to go on and off at 12 h intervals with the lights going on at 7:00 a.m. In some experiments, mice also had ad libitum access to a high-fat diet containing 60% caloric content from fat (TD 06414; Harlan Teklad, Indianapolis, IN, USA) in addition to regular chow to measure dietary preferences. All procedures were approved by the Carleton University Animal Care Committee and followed the guidelines of the Canadian Council on Animal Care.
Mice (n = 16) were singly housed and given free access to water and regular chow for a 4-day baseline period. After this, mice were assigned to one of three groups: vehicle (n = 5), CF801 low dose (n = 5; 11 μmol⋅kg^−1 – LD), or CF801 high dose (n = 6; 22 μmol⋅kg^−1 – HD). […] Food intake was then monitored every hour for 4 h to determine the effects of CF801 on rebound feeding. […]
Following the treatment or recovery periods, mice were killed by rapid decapitation and plasma and tissue samples were collected. […] Plasma acylated ghrelin for all animals was measured using an ELISA kit (Millipore).

[1] = Food intake and dietary preference (chow and high-fat diet)
Method: as §1
A second cohort of mice (n = 30) was acclimated to the laboratory conditions for 1 week prior to the onset of the experiment. Mice were housed individually and their body weight and food intake was recorded daily for a baseline period of 10 days. Given that ghrelin augments the intake of preferred diets ([28]), all mice received ad libitum access to a high-fat diet (60% of calories coming from fat), in addition to regular chow, to determine if CF801 altered dietary preference. Both chow and high-fat diet pellets were provided daily to mice ad libitum in pre-weighed amounts. Mice were then assigned to four different groups: non-injected control (NIC; n = 7), vehicle (0.9% saline) (VEH; n = 7), low-dose CF801 (11 μmol⋅kg^−1 – LD; n = 8) and high-dose CF801 (22 μmol⋅kg^−1 – HD; n = 8). Each day at 09:00 hours, mice were weighed and their food intake (both chow and high-fat diet) was recorded. After this, mice received an intraperitoneal injection of either CF801 or saline (except for the non-injected controls). Following the 13-day treatment period, half the animals in each group were sacrificed, while the remaining mice were allowed to recover from treatment. […] At this point, the remaining mice were sacrificed. Carcasses from all animals were frozen and stored at −80°C until they were scanned for body composition analyses. Immediately prior to analysis, all carcasses were thawed to room temperature and weighed in order to obtain measures relative to total carcass mass. EchoMRI carcass analyses were performed at Health Canada, Nutrition Research Division facilities using the EchoMRI-1100 (System ID EF-020) scanner. Each carcass was analyzed separately and measurements of total fat mass, total lean mass, and total water weight were obtained for each mouse.

[2] = Indirect calorimetry, respiratory exchange ratio; conditions: 22 μmol⋅kg^−1 i.p. daily for a week, 4-h period following injection, n = 5 vs saline n = 5; t(5) = 3.457, p < 0.05
Method: Mice (n = 10) were housed individually and their body weight and food intake was recorded daily for a baseline period of 10 days. As in Experiment 1, all mice had ad libitum access to regular lab chow and a high-fat diet (60% of calories coming from fat). At the end of the baseline, mice were housed in metabolic chambers (TSE Systems) for 48 h to examine metabolic rate using indirect calorimetry prior to the onset of the drug treatment. While indirect calorimetry measures were obtained throughout the 48-h period, we only analyzed measurements in the last 24 h to allow the animals to adjust to the chambers. Mice were then assigned to one of two groups: vehicle (0.9% saline) (VEH; n = 5) and CF801 (22 μmol⋅kg^−1; n = 5). Each day at 09:00 hours, mice were weighed and their food intake (both chow and high-fat diet) was recorded, and then received an intraperitoneal injection of either CF801 or saline. Drug treatment continued for 16 days. On the eighth day, mice were again placed in the metabolic chambers for 48 h while still being monitored and injected with their respective treatment to determine differences in metabolism produced by the drug.
Given that treatment with CF801 decreased weight gain without altering caloric intake, we reasoned that perhaps CF801 was exerting its effects at the metabolic level. […]

[3] = Blood glucose in trunk blood; conditions: after 4 days i.p. treatment, fast and refeeding, F(1,15) = 1.105, p > 0.05
Method: Mice (n = 16) were singly housed and given free access to water and regular chow for a 4-day baseline period. After this, mice were assigned to one of three groups: vehicle (n = 5), CF801 low dose (n = 5; 11 μmol⋅kg^−1 – LD), or CF801 high dose (n = 6; 22 μmol⋅kg^−1 – HD). These mice were injected intraperitoneally once a day for 4 days starting at 10:00 a.m. Following 4 days of treatment, animals were tested for rebound feeding after a fast. To do this, we removed the food from each cage 1 h before lights out (6:00 p.m.), and food was returned to the cage the following day 1 h after the last injection. Food intake was then monitored every hour for 4 h to determine the effects of CF801 on rebound feeding. Animals were then sacrificed by rapid decapitation to collect trunk blood and other tissues. Two samples were lost during sample collection, so the number of samples used to measure acylated ghrelin was reduced to n = 14.
Following the treatment or recovery periods, mice were killed by rapid decapitation and plasma and tissue samples were collected. To measure glucose levels, glucose strips attached to a Contour glucose meter (Bayer Corp., Pittsburgh, PA, USA) were dipped in trunk blood collected before being centrifuged. […] Plasma acylated ghrelin for all animals was measured using an ELISA kit (Millipore).

Body weight gain = conditions: 13 days
Method: as §1
A second cohort of mice (n = 30) was acclimated to the laboratory conditions for 1 week prior to the onset of the experiment. Mice were housed individually and their body weight and food intake was recorded daily for a baseline period of 10 days. Given that ghrelin augments the intake of preferred diets ([28]), all mice received ad libitum access to a high-fat diet (60% of calories coming from fat), in addition to regular chow, to determine if CF801 altered dietary preference. Both chow and high-fat diet pellets were provided daily to mice ad libitum in pre-weighed amounts. Mice were then assigned to four different groups: non-injected control (NIC; n = 7), vehicle (0.9% saline) (VEH; n = 7), low-dose CF801 (11 μmol⋅kg^−1 – LD; n = 8) and high-dose CF801 (22 μmol⋅kg^−1 – HD; n = 8). Each day at 09:00 hours, mice were weighed and their food intake (both chow and high-fat diet) was recorded. After this, mice received an intraperitoneal injection of either CF801 or saline (except for the non-injected controls). Following the 13-day treatment period, half the animals in each group were sacrificed, while the remaining mice were allowed to recover from treatment. […] Each carcass was analyzed separately and measurements of total fat mass, total lean mass, and total water weight were obtained for each mouse.

GSAFLSPEHQRK KRRQRRR-NH2 [CF801]
plasma acylated ghrelin concentration, high dose (plasma acylated ghrelin; 22 μmol⋅kg^−1 i.p. once daily for 4 days, after fast, vs vehicle, p < 0.05 Fisher LSD): statistically significant; also recorded: reduced levels of plasma acylated ghrelin
plasma acylated ghrelin concentration, dose dependence (plasma acylated ghrelin; i.p. once daily for 4 days, 11 and 22 μmol⋅kg^−1, F(2,24) = 2.90, p < 0.05, partial eta^2 = 0.22): dose-dependent decrease in plasma ghrelin concentrations
high-fat diet intake, low dose vs NIC and VEH ([1]; 11 μmol⋅kg^−1 i.p. daily, 13 days, p's < 0.05): significantly less high-fat diet
regular chow consumption, high dose ([1]; 22 μmol⋅kg^−1 i.p. daily, 13 days, vs every other group, F(3,28) = 5.305, p < 0.05, partial eta^2 = 0.41): significantly more regular chow
high-fat diet intake, high dose vs NIC and VEH ([1]; 22 μmol⋅kg^−1 i.p. daily, 13 days, p's < 0.05): significantly less high-fat diet
caloric intake, recovery period ([1]; 8-day recovery without injection, F(1,29) = 2.093, p > 0.05): no differences between any groups
caloric intake, treatment period ([1]; 13-day i.p. treatment, 11 and 22 μmol⋅kg^−1, chow plus high-fat diet, F(1,29) = 0.783, p > 0.05): no differences between any groups
high-fat diet intake, dose dependence ([1]; 13-day i.p. treatment, F(3,29) = 6.788, p < 0.05, partial eta^2 = 0.45): overall significant dose-dependent decrease in the intake of the high-fat diet
high-fat diet intake, high dose vs low dose ([1]; 22 vs 11 μmol⋅kg^−1 i.p. daily, 13 days): tended to consume less than animals receiving LD CF801 (p = 0.073)
caloric intake at end of treatment period ([1]; once CF801 injections stop): small spike in caloric intake
respiratory exchange ratio (RER) [2]: significant decrease in RER
blood glucose concentrations [3]: No significant differences
weight gain, low dose vs NIC and VEH (Body weight gain; 11 μmol⋅kg^−1 i.p. daily, not statistically significant): tended to have lower weight gain than control NIC (p = 0.092) and VEH-treated mice (p = 0.065)
weight gain, high dose (Body weight gain; 22 μmol⋅kg^−1 i.p. daily, vs saline or non-injected, F(3,29) = 3.098, p < 0.05, partial eta^2 = 0.271): decrease in weight gain
weight gain, low dose vs high dose (Body weight gain; 11 vs 22 μmol⋅kg^−1 i.p. daily, p > 0.05): no differences in weight gain
